Columns and labels:
[1] = system: T1, homomeric Kv7.1; assay: TEVC, homomeric Kv7.1 channels in oocytes; type: cell-based, human
T1 construct: expressed in transfected cells; host or cells: Xenopus oocytes, cRNA injected
Procedure: Figure 1 AC-1 inhibits Kv7.1 channels only in the presence of KCNE1. (a) Structure of adamantane compound AC-1. (b) Concentration-response relationship for inhibition of Kv7.1/KCNE channel currents by AC-1. Kv7.1/KCNE1 channel currents were activated by repetitive 7 s pulses to +40 mV applied from a holding potential of −80 mV. Inhibition was determined as percent change in current amplitude at the end of the depolarizing test pulse to +40 mV. Data were fitted (smooth curve) to the Hill equation (n=5–70,±s.e.m.). (c) The inhibitory effect of different AC-1 concentrations on Kv7.1/KCNE1 channels was determined by repetitive 7 s pulses to +40 mV applied from a holding potential of −80 mV. […] Inhibition of current was determined as described above and plotted against the amount (in ng) of cRNA injected into individual oocytes. […]
(§1) Template cDNAs (wildtype or mutant human Kv7.1 in pSGEM, wildtype human KCNE1 in pSP64) were linearized with a suitable restriction enzyme (Nhe I/pSGEM, Eco RI/pSP64). cRNA was synthesized from 1 μg linearized cDNA by in vitro transcription (mMessage mMachine T7 or SP6 kit, Ambion, Life Technologies Darmstadt, Germany). cRNA concentrations were determined by photometry (Nanodrop, Peqlab, Erlangen, Germany) and cRNA quality was checked by agarose gel electrophoresis. […]

[2] = molecular target: I274A/KCNE1 (Homo sapiens, UniProt P15382+P51787, I274A); assay: TEVC, mutant channel I274A/KCNE1 in oocytes; type: cell-based; details: Kv7.1 I274A mutant with KCNE1
Text: Ala scanning was previously used to identify specific residues that form the putative binding sites for chromanol and benzodiazepine derivatives that are considered to be classical pore blockers of Kv7.1 channels. Here we applied Ala scanning to multiple segments of the Kv7.1 α-subunit to identify potential AC-1 interaction sites in the extended pore region of Kv7.1/KCNE1 channels (Fig. 3a). In cases where mutation to Ala precluded channel function, alternative residues were introduced. […] Instead, most of these crucial residues cluster around a ‘window' formed uniquely in the preopen–closed state model of the Kv7.1/KCNE1 channel[33] (Fig. 3c, magenta residues). […]
as §1
TEVC measurements were performed using a TurboTec-10CD amplifier (npi Electronic, Tamm, Germany) and an ITC-16 AD/DA-interface (Instrutech Corporation, Port Washington, New York, USA). […] Tail currents were recorded at −120 mV. […]

IC50 [2]: 327 ± 83 nM
Structure (SMILES): CC(C)(Oc1ccc(Cl)cc1)C(=O)NC1C2CC3CC1CC(NS(C)(=O)=O)(C3)C2 (stereo not drawn) [AC-1, 2-(4-chlorophenoxy)-2-methyl-N-[5-[(methylsulfonyl)amino]tricyclo[3.3.1.13,7]dec-2-yl]-propanamide]
effect on homomeric Kv7.1 ([1]; 1 μM): does not affect
effect of different concentrations on Kv7.1 homotetramers ([1]; different concentrations, up to 10 μM, +40 mV): Lack of effect
